According to ChEMBL document CHEMBL1201862, “PubChem BioAssay data set” (2004):
Active and inactive are the calls of the source.

Columns and labels:
[1] = target: Melanin-concentrating hormone receptor 1 (Homo sapiens, UniProt Q99705); test: Late-stage fluorescence-based counterscreen for antagonists of the G-protein coupled receptor 7 (GPR7): cell-based dose response assay to identify antagonists of the melanin-concentrating hormone receptor 1 (MCHR1) Set 6.; type: functional
[2] = target: Neuropeptides B/W receptor type 1 (Homo sapiens, UniProt P48145); test: human NPBW1 receptor blockade, IC50 – cell-based, fluorescence, dose response, set 6, late-stage follow-up (AID 588583); type: functional
[3] = THP-1 cell cytotoxicity, cytotoxicity control, set 5 (AID 588443); type: functional
Large T antigen = Large T antigen (Simian virus 40, UniProt P03070); type: functional, Betapolyomavirus macacae;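 note: Confirmatory-stage PubChem screen for compounds that inhibit SV40 T antigen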
[4] = target: Intestinal-type alkaline phosphatase (Homo sapiens, UniProt P09923); test: activation of human intestinal alkaline phosphatase – biochemical, dose response (AID 488873); type: functional
[5] = target: FAD-linked sulfhydryl oxidase ALR (Homo sapiens, UniProt P55789); test: ALR-catalysed DTT oxidation blockers – biochemical, H2O2 detection, luminescence, cherry-pick, dose response (AID 493248)
[6] = target: Intestinal-type alkaline phosphatase (Mus musculus, UniProt P24822); test: mouse intestinal alkaline phosphatase activators, dose response, biochemical, luminescence, uHTS hits (AID 488783); type: functional
[7] = target: T1, Alkaline phosphatase, tissue-nonspecific isozyme (Homo sapiens, UniProt P05186); test: activation of tissue-nonspecific alkaline phosphatase – biochemical, TNAP isozyme, mouse IAP uHTS hits, selectivity assay for mouse IAP activator project, dose response (AID 488880); type: functional
T1 sequence (P05186 whole entry): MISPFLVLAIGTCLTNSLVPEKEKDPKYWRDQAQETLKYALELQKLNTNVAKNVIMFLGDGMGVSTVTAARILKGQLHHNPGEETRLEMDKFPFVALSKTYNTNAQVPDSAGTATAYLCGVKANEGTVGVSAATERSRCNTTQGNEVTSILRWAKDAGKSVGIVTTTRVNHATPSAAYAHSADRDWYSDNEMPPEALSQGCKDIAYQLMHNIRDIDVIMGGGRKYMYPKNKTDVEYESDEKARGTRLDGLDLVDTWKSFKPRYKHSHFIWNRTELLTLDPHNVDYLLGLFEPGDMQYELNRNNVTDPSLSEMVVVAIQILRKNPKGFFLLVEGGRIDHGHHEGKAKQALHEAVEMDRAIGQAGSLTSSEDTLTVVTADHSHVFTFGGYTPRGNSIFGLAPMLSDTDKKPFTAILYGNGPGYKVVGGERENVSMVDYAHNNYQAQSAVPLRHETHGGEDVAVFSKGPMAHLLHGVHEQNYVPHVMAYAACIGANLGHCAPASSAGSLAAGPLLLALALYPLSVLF

[8] = target: Benomyl/methotrexate resistance protein (Candida albicans, UniProt P28873); test: Candida albicans Mdr1 pump inhibition curves – singleplex, Cherry Pick1 hits, dose response (AID 588608); type: functional
[9] = target: Multidrug resistance protein CDR2 (Candida albicans (strain SC5314 / ATCC MYA-2876) (Yeast), UniProt P78595); test: inhibition of Nile Red efflux via Candida CDR2 – S. cerevisiae AD1-8u, singleplex, Cherry Pick1 hits, dose response (AID 588604); type: functional
[10] = target: 26S proteasome non-ATPase regulatory subunit 14 (Homo sapiens, UniProt O00487); test: inhibition of proteasome subunit RPN11 – biochemical, fluorescence polarization, uHTS hits, confirmation (AID 602368); type: functional
[11] = target: 72 kDa type IV collagenase (Homo sapiens, UniProt P08253); test: Dose Response validation of uHTS RPN11 inhibitor hits using a MMP-2 Fluorescence assay.; type: functional
Prothrombin = Prothrombin (Bos taurus, UniProt P00735); test: thrombin protease inhibitors – biochemical, fluorescence polarization, uHTS hits, dose response (AID 602369); type: functional
[12] = target: T2, Histone-lysine N-methyltransferase NSD2 (Homo sapiens, UniProt O96028); type: biochemical
T2 sequence (O96028 whole entry): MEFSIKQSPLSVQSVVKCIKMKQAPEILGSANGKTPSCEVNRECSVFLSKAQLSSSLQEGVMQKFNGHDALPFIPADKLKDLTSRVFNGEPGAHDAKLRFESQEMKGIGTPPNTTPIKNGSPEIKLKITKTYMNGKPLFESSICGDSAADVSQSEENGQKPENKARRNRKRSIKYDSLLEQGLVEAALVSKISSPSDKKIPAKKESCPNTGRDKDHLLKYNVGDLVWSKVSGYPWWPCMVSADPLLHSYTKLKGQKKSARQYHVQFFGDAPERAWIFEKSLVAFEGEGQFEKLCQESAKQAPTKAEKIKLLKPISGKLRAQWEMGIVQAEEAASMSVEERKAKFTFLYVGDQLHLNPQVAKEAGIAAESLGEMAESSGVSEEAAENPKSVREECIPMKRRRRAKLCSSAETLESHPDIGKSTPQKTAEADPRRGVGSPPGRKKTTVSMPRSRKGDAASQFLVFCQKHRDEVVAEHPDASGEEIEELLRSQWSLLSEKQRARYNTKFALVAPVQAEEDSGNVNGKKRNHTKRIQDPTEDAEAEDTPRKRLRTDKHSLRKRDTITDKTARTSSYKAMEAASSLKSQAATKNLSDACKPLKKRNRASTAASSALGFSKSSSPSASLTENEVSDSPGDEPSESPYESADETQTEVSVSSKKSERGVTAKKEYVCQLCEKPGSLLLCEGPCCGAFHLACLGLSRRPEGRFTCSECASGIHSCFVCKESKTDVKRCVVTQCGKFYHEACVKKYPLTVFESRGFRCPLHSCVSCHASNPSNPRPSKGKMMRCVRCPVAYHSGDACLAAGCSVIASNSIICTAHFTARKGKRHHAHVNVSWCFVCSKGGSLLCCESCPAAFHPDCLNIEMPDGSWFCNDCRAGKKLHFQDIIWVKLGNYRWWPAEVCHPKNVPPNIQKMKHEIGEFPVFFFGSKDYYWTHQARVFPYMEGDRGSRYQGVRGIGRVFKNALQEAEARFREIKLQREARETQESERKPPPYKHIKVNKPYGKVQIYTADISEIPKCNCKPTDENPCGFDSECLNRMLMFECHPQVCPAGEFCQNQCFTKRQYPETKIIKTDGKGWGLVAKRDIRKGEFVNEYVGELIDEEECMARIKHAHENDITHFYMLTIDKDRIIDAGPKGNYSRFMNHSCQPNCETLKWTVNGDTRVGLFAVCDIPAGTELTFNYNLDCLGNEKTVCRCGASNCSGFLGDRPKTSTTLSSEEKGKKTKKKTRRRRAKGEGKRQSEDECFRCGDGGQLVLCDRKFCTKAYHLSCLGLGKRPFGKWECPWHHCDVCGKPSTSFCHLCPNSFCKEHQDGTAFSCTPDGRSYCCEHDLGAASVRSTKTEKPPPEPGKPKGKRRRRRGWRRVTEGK

Chain of Neuropeptides B/W receptor type 1 (P48145 whole entry): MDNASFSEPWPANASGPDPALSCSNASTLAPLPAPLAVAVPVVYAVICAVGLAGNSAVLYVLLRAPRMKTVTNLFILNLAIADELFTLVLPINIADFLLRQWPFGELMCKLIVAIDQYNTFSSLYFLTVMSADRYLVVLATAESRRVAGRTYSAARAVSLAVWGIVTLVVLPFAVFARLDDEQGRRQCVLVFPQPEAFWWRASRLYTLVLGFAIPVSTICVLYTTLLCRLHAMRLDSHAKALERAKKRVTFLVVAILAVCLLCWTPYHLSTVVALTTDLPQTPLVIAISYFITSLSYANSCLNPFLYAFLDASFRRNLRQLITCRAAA
Chain of FAD-linked sulfhydryl oxidase ALR (P55789 whole entry): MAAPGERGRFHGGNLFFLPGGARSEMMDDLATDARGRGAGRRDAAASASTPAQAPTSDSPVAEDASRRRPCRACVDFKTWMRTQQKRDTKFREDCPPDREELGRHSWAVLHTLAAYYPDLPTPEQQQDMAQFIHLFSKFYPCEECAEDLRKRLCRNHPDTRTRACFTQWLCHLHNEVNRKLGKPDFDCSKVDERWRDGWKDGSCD
Chain of Multidrug resistance protein CDR2 (P78595 whole entry): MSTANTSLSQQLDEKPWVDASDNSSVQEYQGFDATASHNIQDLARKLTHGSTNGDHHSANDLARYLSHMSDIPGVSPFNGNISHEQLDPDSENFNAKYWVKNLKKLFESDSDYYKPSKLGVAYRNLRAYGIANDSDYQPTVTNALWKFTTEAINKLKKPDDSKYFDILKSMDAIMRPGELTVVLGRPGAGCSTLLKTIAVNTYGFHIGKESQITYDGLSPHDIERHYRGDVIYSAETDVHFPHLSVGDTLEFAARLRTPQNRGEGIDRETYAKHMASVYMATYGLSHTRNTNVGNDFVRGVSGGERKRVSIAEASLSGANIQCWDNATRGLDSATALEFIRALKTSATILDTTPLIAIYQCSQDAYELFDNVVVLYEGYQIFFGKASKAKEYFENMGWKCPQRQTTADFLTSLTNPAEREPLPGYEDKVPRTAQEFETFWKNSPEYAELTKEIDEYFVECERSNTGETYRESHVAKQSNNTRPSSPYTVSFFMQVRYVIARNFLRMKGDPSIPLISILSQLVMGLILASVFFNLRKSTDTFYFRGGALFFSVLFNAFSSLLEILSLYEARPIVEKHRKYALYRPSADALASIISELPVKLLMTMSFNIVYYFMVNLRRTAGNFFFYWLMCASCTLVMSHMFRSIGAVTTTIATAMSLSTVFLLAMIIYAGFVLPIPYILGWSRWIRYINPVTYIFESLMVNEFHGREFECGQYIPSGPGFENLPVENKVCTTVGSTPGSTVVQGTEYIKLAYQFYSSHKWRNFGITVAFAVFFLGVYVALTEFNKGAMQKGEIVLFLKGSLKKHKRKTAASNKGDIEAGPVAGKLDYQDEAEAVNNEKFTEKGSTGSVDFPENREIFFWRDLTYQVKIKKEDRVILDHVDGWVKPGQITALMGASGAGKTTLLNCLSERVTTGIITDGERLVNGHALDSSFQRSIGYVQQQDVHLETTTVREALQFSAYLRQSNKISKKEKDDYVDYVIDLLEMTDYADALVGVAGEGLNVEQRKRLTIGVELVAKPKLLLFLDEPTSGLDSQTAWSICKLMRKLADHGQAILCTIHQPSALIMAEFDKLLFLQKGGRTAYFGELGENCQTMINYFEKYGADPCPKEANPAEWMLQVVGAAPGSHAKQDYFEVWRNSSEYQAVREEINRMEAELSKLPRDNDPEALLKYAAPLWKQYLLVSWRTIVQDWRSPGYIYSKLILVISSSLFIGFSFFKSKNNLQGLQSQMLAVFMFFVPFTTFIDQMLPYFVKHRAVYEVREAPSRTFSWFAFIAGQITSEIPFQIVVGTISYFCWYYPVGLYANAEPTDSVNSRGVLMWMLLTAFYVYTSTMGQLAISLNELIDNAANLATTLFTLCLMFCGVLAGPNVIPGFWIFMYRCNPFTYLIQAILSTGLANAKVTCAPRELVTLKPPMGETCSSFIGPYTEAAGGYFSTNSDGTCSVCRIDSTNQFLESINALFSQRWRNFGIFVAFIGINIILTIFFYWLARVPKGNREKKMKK
Chain of 26S proteasome non-ATPase regulatory subunit 14 (O00487 whole entry): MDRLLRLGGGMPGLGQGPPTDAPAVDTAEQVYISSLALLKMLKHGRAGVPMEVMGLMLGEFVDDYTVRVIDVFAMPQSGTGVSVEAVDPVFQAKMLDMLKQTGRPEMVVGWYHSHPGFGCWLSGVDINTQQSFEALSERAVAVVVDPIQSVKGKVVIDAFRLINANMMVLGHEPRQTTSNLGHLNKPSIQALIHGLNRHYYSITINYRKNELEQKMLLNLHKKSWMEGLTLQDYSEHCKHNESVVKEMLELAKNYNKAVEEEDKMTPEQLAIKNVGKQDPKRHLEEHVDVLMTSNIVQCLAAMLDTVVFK
Chain of Melanin-concentrating hormone receptor 1 (Q99705 whole entry): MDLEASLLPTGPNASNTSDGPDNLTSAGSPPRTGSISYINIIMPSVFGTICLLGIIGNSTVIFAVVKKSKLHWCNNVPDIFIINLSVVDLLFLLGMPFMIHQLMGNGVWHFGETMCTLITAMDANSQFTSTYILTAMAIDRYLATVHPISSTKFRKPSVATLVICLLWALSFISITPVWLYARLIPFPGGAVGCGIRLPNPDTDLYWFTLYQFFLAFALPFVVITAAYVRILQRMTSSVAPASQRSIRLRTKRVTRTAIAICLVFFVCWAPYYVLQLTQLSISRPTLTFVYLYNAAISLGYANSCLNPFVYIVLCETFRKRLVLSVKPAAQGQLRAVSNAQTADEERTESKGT
Chain of 72 kDa type IV collagenase (P08253 whole entry): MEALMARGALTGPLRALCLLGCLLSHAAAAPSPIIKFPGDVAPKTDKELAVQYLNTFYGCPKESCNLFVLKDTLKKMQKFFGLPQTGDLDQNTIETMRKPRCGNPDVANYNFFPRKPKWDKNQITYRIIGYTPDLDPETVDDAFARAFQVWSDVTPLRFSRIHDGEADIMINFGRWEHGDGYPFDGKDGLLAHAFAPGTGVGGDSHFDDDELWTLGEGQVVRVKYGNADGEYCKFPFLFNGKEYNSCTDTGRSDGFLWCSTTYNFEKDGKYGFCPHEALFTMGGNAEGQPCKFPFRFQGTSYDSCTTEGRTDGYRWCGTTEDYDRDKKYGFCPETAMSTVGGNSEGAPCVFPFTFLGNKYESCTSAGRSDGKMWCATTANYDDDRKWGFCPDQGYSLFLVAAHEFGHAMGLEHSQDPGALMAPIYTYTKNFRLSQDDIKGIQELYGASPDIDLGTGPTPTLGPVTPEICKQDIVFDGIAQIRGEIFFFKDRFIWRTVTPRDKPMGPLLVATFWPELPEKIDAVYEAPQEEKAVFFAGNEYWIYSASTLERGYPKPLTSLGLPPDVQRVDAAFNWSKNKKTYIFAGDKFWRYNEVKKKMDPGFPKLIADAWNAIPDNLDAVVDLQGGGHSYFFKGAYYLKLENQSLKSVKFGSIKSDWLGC
Chain of Benomyl/methotrexate resistance protein (P28873 whole entry): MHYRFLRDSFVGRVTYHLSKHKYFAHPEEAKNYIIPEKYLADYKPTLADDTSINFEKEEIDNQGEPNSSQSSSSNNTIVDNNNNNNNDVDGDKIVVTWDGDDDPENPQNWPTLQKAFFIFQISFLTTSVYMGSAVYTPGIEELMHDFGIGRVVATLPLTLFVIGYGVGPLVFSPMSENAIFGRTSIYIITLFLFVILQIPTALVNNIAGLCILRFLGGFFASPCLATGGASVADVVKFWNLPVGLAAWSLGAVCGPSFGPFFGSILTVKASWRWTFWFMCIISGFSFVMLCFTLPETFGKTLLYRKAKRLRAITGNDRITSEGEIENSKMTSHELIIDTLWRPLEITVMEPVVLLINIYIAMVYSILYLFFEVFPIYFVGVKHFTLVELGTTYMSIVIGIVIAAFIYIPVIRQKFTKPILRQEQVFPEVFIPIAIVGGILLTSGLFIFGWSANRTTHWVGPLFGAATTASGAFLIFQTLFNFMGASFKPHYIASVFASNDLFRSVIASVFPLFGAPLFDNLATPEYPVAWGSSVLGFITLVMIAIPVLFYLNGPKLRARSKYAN
Chain of Intestinal-type alkaline phosphatase (Homo sapiens, UniProt P09923) (P09923 whole entry): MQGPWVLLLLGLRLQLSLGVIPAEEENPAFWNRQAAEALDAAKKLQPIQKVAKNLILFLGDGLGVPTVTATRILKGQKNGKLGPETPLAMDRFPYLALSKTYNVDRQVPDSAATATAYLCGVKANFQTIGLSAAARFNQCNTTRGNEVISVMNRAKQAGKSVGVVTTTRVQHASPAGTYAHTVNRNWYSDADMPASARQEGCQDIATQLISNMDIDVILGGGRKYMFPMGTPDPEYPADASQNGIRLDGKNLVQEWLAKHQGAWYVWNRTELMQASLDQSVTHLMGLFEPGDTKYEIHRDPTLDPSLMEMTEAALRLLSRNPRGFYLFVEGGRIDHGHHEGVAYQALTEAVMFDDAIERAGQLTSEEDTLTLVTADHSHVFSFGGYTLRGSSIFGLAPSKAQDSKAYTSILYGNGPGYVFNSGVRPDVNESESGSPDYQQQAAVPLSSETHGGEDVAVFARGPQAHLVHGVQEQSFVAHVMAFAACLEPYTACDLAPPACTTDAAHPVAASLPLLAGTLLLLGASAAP
Chain of Intestinal-type alkaline phosphatase (Mus musculus, UniProt P24822) (P24822 whole entry): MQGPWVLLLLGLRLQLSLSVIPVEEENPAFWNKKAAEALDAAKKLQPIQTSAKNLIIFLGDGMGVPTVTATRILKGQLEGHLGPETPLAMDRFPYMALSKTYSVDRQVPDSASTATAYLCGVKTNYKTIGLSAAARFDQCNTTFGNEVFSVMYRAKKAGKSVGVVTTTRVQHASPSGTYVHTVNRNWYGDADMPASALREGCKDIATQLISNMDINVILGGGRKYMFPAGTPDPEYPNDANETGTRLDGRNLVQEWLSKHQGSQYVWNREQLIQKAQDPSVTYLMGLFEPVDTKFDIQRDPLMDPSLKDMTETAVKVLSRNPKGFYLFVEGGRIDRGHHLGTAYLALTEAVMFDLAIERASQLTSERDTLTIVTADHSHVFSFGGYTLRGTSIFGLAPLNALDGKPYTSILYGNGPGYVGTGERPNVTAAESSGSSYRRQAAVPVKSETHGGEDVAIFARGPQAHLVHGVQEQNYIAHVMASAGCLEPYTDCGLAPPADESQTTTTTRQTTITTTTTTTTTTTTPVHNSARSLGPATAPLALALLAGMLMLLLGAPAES

CCOc1ccc(C(C#N)c2c(Cl)cnn(Cc3cccc4ccccc34)c2=O)c(F)c1F (centres undefined)
active: IC50 [1] 0.601 µM | IC50 [2] 0.601 µM

CC1CC(C)CN(C(=O)C2CCC(CNc3c(N4CCCCC4)c(=O)c3=O)CC2)C1 (centres undefined)
inconclusive: CC50 [3] > 30 µM

O=C(O)C(c1ccccc1)N1C(=O)/C(=C\c2ccc(O)c(O)c2)SC1=S (centres undefined)
active: IC50 (Large T antigen) 7.85 µM | EC50 [4] 59.1 µM | AC50 [5] 0.208 µM | EC50 [6] 61 µM | EC50 [7] 24.1 µM | EC50 [8] 2.72 µM | EC50 [9] 4.78 µM | IC50 [10] 26.3 µM | IC50 [11] 39.7 µM | IC50 (Prothrombin) 30.7 µM | AC50 [12] 4.05 µM
